Our source for the GI50 and TGI values is PubChem BioAssay (NCI).

Some test systems named below: A498 renal; A549 NSCLC; HCT-116 colon; HCT-15 colon; HS 578T breast; K-562 leukemia; NCI-H226 lung; RPMI-8226 leukemia; SK-MEL-5 melanoma; UACC-257 melanoma.
What all share (assay): NCI anticancer screen, dose series, 48 h

“And” between values parts separate entries of the source, which are not always exact repeats. Identical values can stand only once.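 48-hour exposure; five concentrations; linearly interpolated endpoints. GI50: concentration for 50% inhibition of growth. The concentration for full growth arrest is given as TGI.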

Regarding `COc1ccc(-c2cncn2-c2cc(OC)c(OC)c(OC)c2)cc1`, the GI50 with A498 renal is 0.103 µM; in the experiment with A549 NSCLC, 0.471 µM; in the experiment on HCT-15 colon, 0.17 µM; in the experiment on HS 578T breast it was 0.123 µM; with K-562 leukemia, 0.443 µM; with NCI-H226 lung it was 1.97 µM. For the same molecule, the results for the GI50 in the experiment with RPMI-8226 leukemia, with SK-MEL-5 melanoma and with UACC-257 melanoma were 0.451 µM, 0.0523 µM and 6.73 µM, respectively. The TGI is 17.5 µM with A498 renal; above 63.8 µM in the experiment with A549 NSCLC; 4.78 µM in the experiment with HCT-116 colon; above 91.9 µM in the experiment on HCT-15 colon; above 6.68 µM in the experiment with HS 578T breast; above 100 µM in the experiment on K-562 leukemia. Further, the TGI with NCI-H226 lung is 82.6 µM; with RPMI-8226 leukemia, 3.29 µM; in the experiment on SK-MEL-5 melanoma it was 5.25 µM; in the experiment with UACC-257 melanoma, above 86.9 µM.

For the molecule `CS(=O)(=O)OCCCNCCCOS(C)(=O)=O`, the TGI in the experiment with A498 renal worked out at 3630 µM; with A549 NSCLC, 4550 µM; with HCT-116 colon it was 5670 µM; in the experiment on HCT-15 colon it was 4680 µM; in the experiment on HS 578T breast it was 8170 µM; in the experiment with K-562 leukemia, 9080 µM. The TGI came out at 5860 µM in the experiment on NCI-H226 lung, 6780 µM with RPMI-8226 leukemia, 3220 µM in the experiment with SK-MEL-5 melanoma and 5310 µM in the experiment on UACC-257 melanoma.

Consider `CN(C)CCCn1c(=O)c2ccccc2c2cnc3[nH]ccc3c21`, for which the GI50 in the experiment on A498 renal is 1.03 µM; with HCT-116 colon, 0.486 µM; in the experiment on HCT-15 colon, 2 µM; with HS 578T breast, 2.53 µM; with K-562 leukemia, 2.03 µM; in the experiment on NCI-H226 lung, 0.862 µM. For the same molecule, the figures for the GI50 with RPMI-8226 leukemia, in the experiment on SK-MEL-5 melanoma and with UACC-257 melanoma were 2.23 µM, 1.77 µM and 2.26 µM, respectively. For the same molecule, the TGI in the experiment on A498 renal came out at 2.37 µM; in the experiment on HCT-116 colon, 10.3 µM; in the experiment with HCT-15 colon it was 9.58 µM; in the experiment on HS 578T breast, 11.2 µM; in the experiment on K-562 leukemia it was 11.5 µM; in the experiment with NCI-H226 lung, 2.58 µM. Also, the figures for the TGI with RPMI-8226 leukemia, in the experiment with SK-MEL-5 melanoma and in the experiment with UACC-257 melanoma were 7.3 µM, 3.51 µM and 5.59 µM, respectively.

Take `CS(=O)(=O)c1ccc(Nc2nc(N[C@H]3CCCC[C@H]3N)nc3cc[nH]c(=O)c23)cc1`: the GI50 in the experiment on A498 renal is 3.31 µM; in the experiment on A549 NSCLC it was 3.87 µM; in the experiment on HCT-116 colon, 0.615 µM; in the experiment on HCT-15 colon, 26.7 µM; in the experiment with HS 578T breast it was 1.25 µM; in the experiment on K-562 leukemia it was 1.14 µM. The GI50 was 2.67 µM in the experiment on NCI-H226 lung, 4 µM in the experiment with RPMI-8226 leukemia, 1.53 µM with SK-MEL-5 melanoma and 2.78 µM in the experiment on UACC-257 melanoma. Further, the TGI is 12.4 µM in the experiment on A498 renal; above 100 µM in the experiment on A549 NSCLC; 16.8 µM in the experiment on HCT-116 colon; above 100 µM in the experiment on HCT-15 colon; 4.95 µM in the experiment on HS 578T breast; above 100 µM with K-562 leukemia. Besides, the TGI was determined as 19 µM in the experiment with NCI-H226 lung, 32.8 µM in the experiment with RPMI-8226 leukemia, 3.25 µM with SK-MEL-5 melanoma and 15.9 µM with UACC-257 melanoma.

For the molecule `C#CC1=CC(=O)C(OC)=CC1=O`, the TGI with A498 renal was above 100 µM; in the experiment on A549 NSCLC, above 100 µM; in the experiment on HCT-116 colon it was 40 µM; in the experiment on HCT-15 colon, 32.3 µM; in the experiment with HS 578T breast, above 100 µM; with K-562 leukemia, above 100 µM. Also, the TGI was 42 µM with NCI-H226 lung, 49.6 µM with RPMI-8226 leukemia, 40 µM in the experiment on SK-MEL-5 melanoma and above 100 µM in the experiment with UACC-257 melanoma.

In the case of `COc1ccc(C(=O)c2cc(C)c(OC)c(C)c2)c(OC)c1NC(C)=O`, the GI50 is 0.0228 µM in the experiment on A498 renal; 0.389 µM in the experiment on A549 NSCLC; 0.439 µM in the experiment on HCT-116 colon; 0.452 µM in the experiment on HCT-15 colon; 0.0715 µM with HS 578T breast; 0.937 µM in the experiment with K-562 leukemia. Besides, the GI50 was 0.102 µM with NCI-H226 lung, 0.785 µM with RPMI-8226 leukemia, 0.364 µM with SK-MEL-5 melanoma and above 100 µM in the experiment with UACC-257 melanoma. The TGI in the experiment on A498 renal was 0.0795 µM; in the experiment with A549 NSCLC, above 100 µM; in the experiment on HCT-116 colon, above 100 µM; in the experiment on HCT-15 colon, above 100 µM; in the experiment on HS 578T breast, above 100 µM; in the experiment on K-562 leukemia, above 100 µM. Besides, the TGI with NCI-H226 lung is 1.58 µM; in the experiment with RPMI-8226 leukemia, above 100 µM; in the experiment on SK-MEL-5 melanoma, 7.15 µM; with UACC-257 melanoma, above 100 µM.

As for `COc1ccc(-c2cc3c(C)nc(N)nc3n(C3CCC(OCCO)CC3)c2=O)cn1` (stereo not given), the GI50 in the experiment with A498 renal was 0.0211 µM; in the experiment on A549 NSCLC, 0.123 µM and 0.109 µM; in the experiment with HCT-116 colon it was 0.243 µM and 0.222 µM; in the experiment with HCT-15 colon, 0.106 µM and 0.0974 µM; in the experiment with HS 578T breast, 0.0345 µM and 0.015 µM; in the experiment with K-562 leukemia, 0.593 µM and 0.36 µM. Also, the GI50 in the experiment on NCI-H226 lung was 0.0742 µM and 0.105 µM; in the experiment with RPMI-8226 leukemia it was 0.157 µM and 0.0612 µM; with SK-MEL-5 melanoma, 0.144 µM and 0.103 µM; with UACC-257 melanoma, 0.0586 µM and 0.0423 µM. Also, the TGI in the experiment with A498 renal is 0.0925 µM; in the experiment with A549 NSCLC, 0.959 µM and 0.489 µM; in the experiment on HCT-116 colon, > 10 µM and 18.9 µM; in the experiment with HCT-15 colon it was > 6.21 µM and 5.11 µM; with HS 578T breast, 0.272 µM and 0.113 µM; in the experiment with K-562 leukemia it was above 100 µM. Besides, the TGI in the experiment with NCI-H226 lung is > 2.19 µM and 0.946 µM; in the experiment with RPMI-8226 leukemia it was > 3.74 µM and 3.27 µM; with SK-MEL-5 melanoma, 0.543 µM and 0.65 µM; in the experiment on UACC-257 melanoma, 0.414 µM and 0.336 µM.

As to `O=C(NC(=O)c1c(Cl)nc2sccn12)Nc1ccc(Cl)cc1`, the TGI is above 97.6 µM in the experiment with A498 renal; above 100 µM in the experiment with A549 NSCLC; above 100 µM in the experiment on HCT-116 colon; above 100 µM in the experiment with HCT-15 colon; 62.9 µM in the experiment on HS 578T breast; above 100 µM in the experiment on K-562 leukemia. The TGI was 89.7 µM in the experiment with NCI-H226 lung, above 100 µM in the experiment with RPMI-8226 leukemia, above 100 µM with SK-MEL-5 melanoma and above 100 µM in the experiment with UACC-257 melanoma.

In the case of `O=C(NNc1ccc(Cl)cc1)C1CCC(CNS(=O)(=O)c2ccccc2Cl)CC1` (stereo not given), the GI50 was 31.3 µM in the experiment on A498 renal; 8.99 µM in the experiment with A549 NSCLC; 5.68 µM in the experiment on HCT-15 colon; 65.2 µM with HS 578T breast; 1.96 µM in the experiment on K-562 leukemia; 20.2 µM in the experiment on NCI-H226 lung. Also, the GI50 is 4.91 µM in the experiment with RPMI-8226 leukemia, 18.4 µM in the experiment on SK-MEL-5 melanoma and 17.1 µM in the experiment on UACC-257 melanoma. Moreover, the TGI in the experiment with A498 renal was 74.9 µM; in the experiment with A549 NSCLC, above 100 µM; with HCT-15 colon it was 61.5 µM; with HS 578T breast, above 100 µM; in the experiment with K-562 leukemia, 5.73 µM; with NCI-H226 lung it was above 100 µM. Further, the TGI in the experiment with RPMI-8226 leukemia is 21.9 µM; in the experiment on SK-MEL-5 melanoma, 39.2 µM; with UACC-257 melanoma it was 59.7 µM.
